From patent US8501787B2, “Compounds for the inhibition of angiogenesis and use thereof” (Shire Orphan Therapies GmbH, priority 2004, dated 2013)

What follows are compounds tested against T1, integrin alpha5beta1 (Homo sapiens, UniProt P05556+P08648) (assay: Alpha5beta1-Fibronectin binding assay (competitive ELISA)). Settings: method of section 1.1; read-out: Group (binding activities to integrin alpha5beta1).
T1 construct: The integrin alpha5beta1 extracellular domain Fc-fusion was expressed and purified; made in house
Description: The optimal concentrations of integrin and ligand were selected from ELISA binding studies with variable concentrations of both to obtain optimal signal noise ratio for further studies. IC50 studies were performed with fixed concentration of ligand and integrin and a serial dilution of inhibitor. The plates were measured with SpectraMax Plus reader (Molecular Devices). The resulting inhibition curves were analyzed using SoftMaxPro 4.0 software, the turning point describes the IC50 value.
Fibronectin and Vitronectin were purchased from Sigma, fibrinogen from Calbiochem. (EMD Biosciences, Darmstadt, Germany) The integrin alpha5beta1 extracellular domain Fc-fusion was expressed and purified as described in (Coe, 2001, JBC, 276, 35854). Integrins alphavbeta3 and alphavbeta5 were purchased from Chemicon (Chemicon Europe, Germany) and alphaIIbbeta3 form Kordia (Kordia Life Science, Leiden, Netherlands)
Fibronectin was diluted with coating buffer (15 mM Na2CO3, 35 mM NaHCO3, pH9.6) and coated with 100 μL/well to Nunc-Immuno maxisorp plates (Nalge Nunc Europe Ltd) over night at 4° C. After discarding the coating solution plates were washed 3 times with buffer 1 ([…], pH7.6, 150 mM NaCl, 1 mM […], 1 mg/mL BSA) and blocked with 100 μL blocking buffer (3% BSA in PBS 0.1% Tween20) for 1 hour at room temperature. After washing the blocked plates (3 times) with buffer 1, integrin (50 μL) and either inhibitor (serial dilution in buffer 1) or buffer 1 (50 μL) were added to the wells and incubated for one hour at RT. Plates were then washed (3 times) with buffer 1 and incubated with 100 μL of anti-human-Fc-HRP antibody conjugate (Sigma-Aldrich, Taufkirchen, Germany) in buffer 1 for 1 hour at RT. After additional washing steps (3 times) with buffer 1 50 μL of HRP substrate solution TMB (Seramun, Germany) were added to the wells. Colour development was stopped after 3-5 minutes with 50 μL 1M H2SO4. The developed colour was measured at 450 nm and analyzed as described above.

Row | SMILES | IC50 [nM]
1 | O=C(CO[C@@H]1C[C@@H](CNc2ccccn2)N(C(=O)OCc2ccccc2)C1)NC[C@H](NC(=O)c1ccccc1[N+](=O)[O-])C(=O)O [Compound 96, 4-{[2-Carboxy-2-(2-nitro-benzoylamino)-ethylcarbamoyl]-methoxy}-2-(pyridin-2-ylaminomethyl)-pyrrolidine-1-carboxylic acid benzyl ester] | < 10
2 | O=C(CO[C@@H]1C[C@@H](CNc2ccccn2)N(C(=O)OCc2ccccc2)C1)NC[C@H](NC(=O)c1ccccc1Cl)C(=O)O [Compound 97, 4-{[2-Carboxy-2-(2-chloro-benzoylamino)-ethylcarbamoyl]-methoxy}-2-(pyridin-2-ylaminomethyl)-pyrrolidine-1-carboxylic acid benzyl ester] | < 10
3 | O=C(CO[C@@H]1C[C@@H](CNc2ccccn2)N(C(=O)OCc2ccccc2)C1)NC[C@H](NC(=O)c1ccccc1-c1ccccc1)C(=O)O [Compound 104, 4-({2-[(Biphenyl-2-carbonyl)-amino]-2-carboxy-ethylcarbamoyl}-methoxy)-2-(pyridin-2-ylaminomethyl)-pyrrolidine-1-carboxylic acid benzyl ester] | 10 to 500
4 | O=C(CO[C@@H]1C[C@@H](CNc2ccccn2)N(C(=O)OCc2ccccc2)C1)NC[C@H](NC(=O)C1(c2ccccc2)CC1)C(=O)O [Compound 106, 4-({2-Carboxy-2-[(1-phenyl-cyclopropanecarbonyl)-amino]-ethylcarbamoyl}-methoxy)-2-(pyridin-2-ylaminomethyl)-pyrrolidine-1-carboxylic acid benzyl ester] | 10 to 500
5 | CC(C)(C)C(=O)N[C@@H](CNC(=O)CO[C@@H]1C[C@@H](CNc2ccccn2)N(C(=O)OCc2ccccc2)C1)C(=O)O [Compound 117, 4-{[2-Carboxy-2-(2,2-dimethyl-propionylamino)-ethylcarbamoyl]-methoxy}-2-(pyridin-2-ylaminomethyl)-pyrrolidine-1-carboxylic acid benzyl ester] | < 10
6 | CCC(C)(C)C(=O)N[C@@H](CNC(=O)CO[C@@H]1C[C@@H](CNc2ccccn2)N(C(=O)OCc2ccccc2)C1)C(=O)O [Compound 118, 4-{[2-Carboxy-2-(2,2-dimethyl-butyrylamino)-ethylcarbamoyl]-methoxy}-2-(pyridin-2-ylaminomethyl)-pyrrolidine-1-carboxylic acid benzyl ester] | < 10
7 | CC(C)c1cc(C(C)C)c(C(=O)N[C@@H](CNC(=O)CO[C@@H]2C[C@@H](CNc3ccccn3)N(C(=O)OCc3ccccc3)C2)C(=O)O)c(C(C)C)c1 [Compound 126, 4-{[2-Carboxy-2-(2,4,6-triisopropyl-benzoylamino)-ethylcarbamoyl]-methoxy}-2-(pyridin-2-ylaminomethyl)-pyrrolidine-1-carboxylic acid benzyl ester] | > 500
8 | O=C(CO[C@@H]1C[C@@H](CNc2ccccn2)N(C(=O)OCc2ccccc2)C1)NC[C@H](NC(=O)CCCc1ccccc1)C(=O)O [Compound 127, 4-{[2-Carboxy-2-(4-phenyl-butyrylamino)-ethylcarbamoyl]-methoxy}-2-(pyridin-2-ylaminomethyl)-pyrrolidine-1-carboxylic acid benzyl ester] | 10 to 500

Results, then the compound that gave them:

Row | IC50 [nM] | SMILES
9 | > 500 | Cc1cc(C)c(S(=O)(=O)N[C@@H](CNC(=O)CO[C@@H]2C[C@@H](CNc3ncccn3)N(C(=O)OCc3ccccc3)C2)C(=O)O)c(C)c1 [Compound 130, 4-{[2-Carboxy-2-(2,4,6-trimethyl-benzenesulfonylamino)-ethylcarbamoyl]-methoxy}-2-(pyrimidin-2-ylaminomethyl)-pyrrolidine-1-carboxylic acid benzyl ester]
10 | > 500 | Cc1cc(C)c(S(=O)(=O)N[C@@H](CNC(=O)CO[C@@H]2C[C@@H](CNc3cc[nH]n3)N(C(=O)OCc3ccccc3)C2)C(=O)O)c(C)c1 [Compound 135, 4-{[2-Carboxy-2-(2,4,6-trimethyl-benzenesulfonylamino)-ethylcarbamoyl]-methoxy}-2-[(1H-pyrazol-3-ylamino)-methyl]-pyrrolidine-1-carboxylic acid benzyl ester]
11 | < 10 | COc1ccnc(NC[C@@H]2C[C@@H](OCC(=O)NC[C@H](NC(=O)C3(C)CCCCC3)C(=O)O)CN2C(=O)CC(C)(C)C)c1 [Compound 148, 3-(2-{1-(3,3-Dimethyl-butyryl)-5-[(4-methoxy-pyridin-2-ylamino)-methyl]-pyrrolidin-3-yloxy}-acetylamino)-2-[(1-methyl-cyclohexanecarbonyl)-amino]-propionic acid]
12 | > 500 | O=C(O)C[C@H](Cc1ccccc1)NC(=O)CO[C@@H]1C[C@@H](CNc2ccccn2)N(C(=O)OCc2ccccc2)C1 [Compound 150, 4-[(1-Carboxymethyl-2-phenyl-ethylcarbamoyl)-methoxy]-2-(pyridin-2-ylaminomethyl)-pyrrolidine-1-carboxylic acid benzyl ester]
13 | > 500 | Cc1ccc(C[C@@H](CC(=O)O)NC(=O)CO[C@@H]2C[C@@H](CNc3ccccn3)N(C(=O)OCc3ccccc3)C2)cc1 [Compound 152, 4-[(1-Carboxymethyl-2-p-tolyl-ethylcarbamoyl)-methoxy]-2-(pyridin-2-ylaminomethyl)-pyrrolidine-1-carboxylic acid benzyl ester]
